Tests used:
Format in all cases: functional
Haemonchus contortus [1] = assay: Parasiticidal activity against Haemonchus contortus by larval assay
Ctenocephalides felis [2] = assay: Parasiticidal activity against Ctenocephalides felis after 8 hrs by cat flea assay; parameters: concentration or dose not given beside the values
Ctenocephalides felis [3] = assay: Parasiticidal activity against Ctenocephalides felis assessed as mortality after 24 hrs by cat flea assay; parameters: concentration or dose not given beside the values
Ctenocephalides felis [4] = assay: Parasiticidal activity against Ctenocephalides felis by cat flea assay
Rhipicephalus sanguineus [5] = assay: Parasiticidal activity against Rhipicephalus sanguineus assessed per tick by brown dog tick assay
Rhipicephalus sanguineus [6] = assay: Parasiticidal activity against Rhipicephalus sanguineus assessed as mortality after 24 hrs by brown dog tick assay; parameters: concentration or dose not given beside the values
Haemonchus contortus [7] = assay: Parasiticidal activity against benzimidazole and levamisole-resistant Haemonchus contortus Lawes by larval assay
[8] = tested on: Teladorsagia circumcincta; assay: Parasiticidal activity against Ostertagia circumcincta McMaster
[9] = tested on: Trichostrongylus colubriformis; assay: Parasiticidal activity against Trichostrongylus colubriformis
Haemonchus contortus [10] = assay: Parasiticidal activity against avermectin-resistant Haemonchus contortus CAVR by larval assay
Rhipicephalus sanguineus [11] = assay: Parasiticidal activity against Rhipicephalus sanguineus assessed as mortality at 10 ug/tick by brown dog tick assay

SMILES | LD99 (Haemonchus contortus [1]) [µM] | Activity (Ctenocephalides felis [2]) [%] | Activity (Ctenocephalides felis [3]) [%] | LC50 (Ctenocephalides felis [4]) [ng/cm2] | LD50 (Rhipicephalus sanguineus [5]) [µg] | Activity (Rhipicephalus sanguineus [6]) [%] | LD99 (Haemonchus contortus [7]) [µM] | LD99 [8] [µM] | LD99 [9] [µM] | LD99 (Haemonchus contortus [10]) [µM] | Activity (Rhipicephalus sanguineus [11]) [%]
O=S(=O)(Nc1ccc(Cl)cc1/C=N/OCc1ccc(C(F)(F)F)cc1C(F)(F)F)C(F)(F)F | 0.59 | 10 |  |  |  |  |  |  |  |  | 
CC(C)/C(=N\OCc1ccc(C(F)(F)F)cc1C(F)(F)F)c1cc(Cl)ccc1NS(=O)(=O)C(F)(F)F | 1.5 | 10 |  |  |  |  |  |  |  |  | 
CCC/C(=N\OCc1ccc(C(F)(F)F)cc1C(F)(F)F)c1cc(Cl)ccc1NS(=O)(=O)C(F)(F)F | 2.5 | 79 |  |  |  |  |  |  |  |  | 
CC/C(=N\OCc1ccc(C(C)(C)C)cc1)c1cc(Cl)ccc1NS(=O)(=O)C(F)(F)F | 6.9 | 8 |  |  |  |  |  |  |  |  | 
CC/C(=N\OCc1ccc(F)cc1F)c1cc(Cl)ccc1NS(=O)(=O)C(F)(F)F | 7.2 | 95 |  |  |  |  |  |  |  |  | 
C/C(=N\OC(C)(C)C)c1cc(Cl)ccc1NS(=O)(=O)C(F)(F)F | 16 |  | 100 | 41 | 1.4 | 92 |  |  |  |  | 
CC/C(=N\OCc1ccc(Cl)cc1Cl)c1cc(Cl)ccc1NS(=O)(=O)C(F)(F)F | 0.84 | 94 |  |  |  |  |  |  |  |  | 
CCC/C(=N\OCc1ccc(C(F)(F)F)cc1)c1cc(Cl)ccc1NS(=O)(=O)C(F)(F)F | 3.2 | 36 |  |  |  |  |  |  |  |  | 
CCO/N=C(\C)c1cc(Br)ccc1NS(=O)(=O)C(F)(F)F | >13 |  | 100 | 11 | 1.2 | 100 |  |  |  |  | 
C/C(=N\Oc1ccccc1)c1cc(Cl)ccc1NS(=O)(=O)C(F)(F)F | 14 | 6 |  |  |  |  |  |  |  |  | 
O=S(=O)(Nc1ccc(Cl)cc1/C(=N/OCc1ccc(C(F)(F)F)cc1C(F)(F)F)c1ccccc1)C(F)(F)F | 3.1 | 21 |  |  |  |  |  |  |  |  | 
CC/C(=N\OC)c1cc(Cl)ccc1NS(=O)(=O)C(F)(F)F | 16 |  | 100 | 15 | 0.89 | 95 |  |  |  |  | 
C/C(=N\OCc1ccc(C(F)(F)F)cc1C(F)(F)F)c1cc(Cl)ccc1NS(=O)(=O)C(F)(F)F | 0.22 | 2 |  |  |  |  | 0.53 | 1.1 | 2.2 | 0.53 | 
C/C(=N\OCC(F)(F)F)c1cc(Cl)ccc1NS(=O)(=O)C(F)(F)F | 18 |  | 100 | 6 | 0.94 | 82 |  |  |  |  | 
CC/C(=N\Oc1ccc(F)cc1)c1cc(Cl)ccc1NS(=O)(=O)C(F)(F)F | 3.5 |  | 100 | 35 | 1.5 | 92 |  |  |  |  | 
CC/C(=N\OCc1ccc(C(F)(F)F)cc1)c1cc(Cl)ccc1NS(=O)(=O)C(F)(F)F | 0.84 |  | 98 | 17 | 2.7 | 90 |  |  |  |  | 
O=S(=O)(Nc1ccc(Cl)cc1/C=N/OCc1ccc(Cl)cc1Cl)C(F)(F)F | 2 | 12 |  |  |  |  |  |  |  |  | 
CC/C(=N\OCc1ccc(Cl)cc1)c1cc(Cl)ccc1NS(=O)(=O)C(F)(F)F | 1.7 |  | 100 | 12 | 2.5 | 83 |  |  |  |  | 
C/C(=N\Oc1ccc(F)cc1)c1cc(Cl)ccc1NS(=O)(=O)C(F)(F)F | 4.6 |  | 100 | 10 | 1.3 | 100 |  |  |  |  | 
C/C(=N\OCC1CCCC1)c1cc(Cl)ccc1NS(=O)(=O)C(F)(F)F | 7.5 |  | 97 | 18 | 2.2 | 100 |  |  |  |  | 
C=CCO/N=C(\CC)c1cc(Cl)ccc1NS(=O)(=O)C(F)(F)F | 32 |  | 100 | 21 | 0.67 | 100 |  |  |  |  | 
CC/C(=N\OCc1cccs1)c1cc(Cl)ccc1NS(=O)(=O)C(F)(F)F | 35 |  | 100 | 7 | 2.5 | 70 |  |  |  |  | 
CC(C)/C(=N\Oc1ccc(Cl)cc1)c1cc(Cl)ccc1NS(=O)(=O)C(F)(F)F | 11 |  | 100 | 71 | 1.7 | 65 |  |  |  |  | 
CC(C)/C(=N\OCc1ccc(C(F)(F)F)cc1)c1cc(Cl)ccc1NS(=O)(=O)C(F)(F)F | 2.6 | 12 |  |  |  |  |  |  |  |  | 
CC/C(=N\OCc1ccc(C(F)(F)F)cc1C(F)(F)F)c1cc(Cl)ccc1NS(=O)(=O)C(F)(F)F | 0.56 | 100 |  | 19 |  | 88 |  |  |  |  | 
CC/C(=N\OCC1CCCCC1)c1cc(Cl)ccc1NS(=O)(=O)C(F)(F)F | 7 |  | 100 | 29 | 3.4 | 100 |  |  |  |  | 100
CC/C(=N\OCC1CC1)c1cc(Cl)ccc1NS(=O)(=O)C(F)(F)F | 36 |  | 100 | 8 | 1.2 | 100 |  |  |  |  | 
CC/C(=N\OC1CCCC1)c1cc(Cl)ccc1NS(=O)(=O)C(F)(F)F | 25 |  | 100 | 21 | 1.5 | 100 |  |  |  |  | 

Reference: ChEMBL document CHEMBL1140776, “Parasiticidal 2-alkoxy- and 2-aryloxyiminoalkyl trifluoromethanesulfonanilides” (2008)
